# Source: patent US9045524B2, “Selective caspase inhibitors and uses thereof” (NOVAGENESIS FOUNDATION, priority 2009, dated 2015)
# Where two headings read alike, the source gives them in different places. Peptide text beside a SMILES is read from it. * marks the point of attachment. Cbz = O=C(OCc1ccccc1)*; CH2F = FC*
# How the values were obtained:
# [1] = target: Caspase-6 (Homo sapiens (Human), UniProt P55212); assay: Fluorometric enzymatic assay, active recombinant Caspase-6; format: biochemical
# Procedure: (§1) . In brief, each compound was serially diluted for a final test concentration range of 0.1 nM to 3.3 μM (10-point titration). Each active recombinant Caspase (Active Recombinant Caspase Set IV™ (BioVision, Cat# K233-10-25)) was added to the respective wells of the 96-well High Efficiency™ plates (Molecular Devices, Cat#75-000-0005), followed by the addition of the diluted test compounds. DMSO (Final=1%) or Z-VAD-FMK (Caspase-Family Inhibitor, Z-VAD-FMK (BioVision, Cat#1010-100), Final concentration=20 uM) was added in the designated wells as a background control or positive inhibitor control respectively. Each dilution of the test compounds was tested in duplicates, whereas the DMSO or Z-VAD-FMK controls were tested in triplicates. The synthetic peptide substrate specific for each Caspase (BioVision) was then added to the respective wells, which when cleaved by the active caspase releases free AFC that can be quantified by fluorometry. After a 30-minute incubation at 37° C., the plates were read using the Flexstation 3™ with a 400 nm excitation filter and a 505 nm emission filter (cutoff at 495 nm). The inhibition efficiency and the IC50 values of the test compounds were then determined by comparing the fluorescence intensity (FI) of the test compounds with that of the DMSO control.
# (§2) The SoftMax Pro Software™ (v5.2 rev C, Molecular Devices) was used for data analysis. The % Inhibition is calculated by: % Inhibition=[FI(DMSO)−FI(test sample)/FI(DMSO)]×100. The % Inhibition vs. Log(concentration) was plotted, and the curve was fitted using the 5-parameter fit of the software.
# [2] = target: Caspase-8 (Homo sapiens (Human), UniProt Q14790); assay: Fluorometric enzymatic assay, active recombinant Caspase-8; format: biochemical
# Procedure: as §1, §2
# [3] = target: Caspase-4 (Homo sapiens (Human), UniProt P49662); assay: Fluorometric enzymatic assay, active recombinant Caspase-4
# Procedure: (§3) Each dilution of the test compounds was tested in duplicates, whereas the DMSO or Z-VAD-FMK controls were tested in triplicates. […] The inhibition efficiency and the IC50 values of the test compounds were then determined by comparing the fluorescence intensity (FI) of the test compounds with that of the DMSO control.
# [4] = target: Caspase-2 (Homo sapiens (Human), UniProt P42575); assay: Fluorometric enzymatic assay, active recombinant Caspase-2; format: biochemical
# Procedure: as §1, §2
# [5] = target: Caspase-1 (Homo sapiens (Human), UniProt P29466); assay: Fluorometric enzymatic assay, active recombinant Caspase-1
# Procedure: as §3
# [6] = target: Caspase-3 (Homo sapiens (Human), UniProt P42574); assay: Fluorometric enzymatic assay, active recombinant Caspase-3; conditions: for inhibitory activity towards Caspase-3: FIG. 5; for IC50: read-out: IC50 values (μM) Caspase-3, 10-point titration 0.1 nM to 3.3 μM, 30-minute incubation at 37° C.
# Procedure: as §3
# [7] = target: Caspase-10 (Homo sapiens (Human), UniProt Q92851); assay: Fluorometric enzymatic assay, active recombinant Caspase-10; conditions: for inhibitory activity towards Caspase-10: FIG. 5
# Procedure: as §3
# [8] = target: Caspase-7 (Homo sapiens (Human), UniProt P55210); assay: Fluorometric enzymatic assay, active recombinant Caspase-7
# Procedure: as §3
# [9] = target: Caspase-5 (Homo sapiens (Human), UniProt P51878); assay: Fluorometric enzymatic assay, active recombinant Caspase-5; format: biochemical
# Procedure: as §1, §2
# [10] = target: Caspase-9 (Homo sapiens (Human), UniProt P55211); assay: Fluorometric enzymatic assay, active recombinant Caspase-9; conditions: for IC50: read-out: IC50 values (μM) Caspase-9, 10-point titration 0.1 nM to 3.3 μM, 30-minute incubation at 37° C.; for inhibitory activity towards Caspase-9: FIG. 5
# Procedure: as §3
# [11] = test system: EAE in C57BL/6 mice; assay: Chronic EAE mouse model (MOG35-55 immunization), daily clinical score and body weight; format: in vivo; design: key to Delay in onset of the disease / Reduction in severity of the disease / Reduction in body weight loss: +++: high level improvement; ++: moderate improvement; +: small improvement; −: no improvement; conditions: for Delay in onset of the disease / Reduction in body weight loss / Reduction in severity of the disease: average overall effects on the EAE model, i.p.
# Source text: The aim of this study was to verify the effectiveness of compounds in a chronic mouse animal model of EAE. EAE is a good proof-of-principle model of neurodegeneration since it encompasses degeneration or destruction of practically all the cells in the central nervous system, includes most major immunomodulatory components, and is able to maintain normal innate regenerative functions in the animal. This is a standard model (Antel J P et al., J Neurosci Res. 1997, 50: 345-353) used mainly to mimic the course evolution of Multiple Sclerosis (MS) in humans, and is commonly used for studying disease mechanisms and testing potential therapies. EAE is induced by immunization with myelin proteins, leading to development of myelin-specific T cells. These autoreactive T cells traffic into CNS parenchyma where they initiate an inflammatory cascade through recruitment of other cells such as monocytes and neutrophils. Accumulation of immune cells within CNS leads to myelin damage, axonal loss and clinical deficit in affected animals. EAE can be induced in a variety of species and strains of animals [mice, Rat, marmoset monkey, rhesus macaques] using various CNS antigens [Myelin Oligodendrocyte Glycoprotein (MOG), proteolipid protein (PLP) and myelin basic protein (MBP)]. Seven to 8 week old female C57BL/6 mice were purchased from Charles River Laboratories, and housed at MISPRO™ animal facility for one week before experimentation for adaptation to the new environment. All proper animal experimentation and ethics approvals were obtained prior to the start of any experiments. Mice were immunized subcutaneously with 100 μg of MOG35-55 (Sheldon Biotechnology Centre, McGill University) in CFA containing 5 mg/ml of desiccated (killed and dried) Mycobacterium tuberculosis H37Ra (Difco, Inc), at two sites on the back. The mice were then injected with 200 ng of pertussis toxin (List Biological Laboratories, Inc) in PBS intraperitoneally on days 0 and 2 using 25 gauge needles and scored daily using an EAE clinical scale as detailed below (Touil T et al., J Neurol Sci. 2008, 271:191-202; Antel J P et al., 1997, supra; Owens T et al., Curr Pharm Des. 2005, 1:1031-1037).
# EAE was clinically assessed throughout the experiments by daily scoring using a scale from 0 to 5 as follows: partial limp tail, 0.5; full limp tail, 1; limp tail and waddling gait, 1.5; paralysis of one hind limb, 2; paralysis of one hind limb and partial paralysis of other hind limb, 2.5; paralysis of both hind limbs, 3; ascending paralysis, 3.5; paralysis of trunk, 4; moribund, 4.5; death, 5. In all the EAE models a body weight loss is always associated with the clinical signs. This body weight loss is associated with the loss of the function and the paralysis of the muscle (atrophy inducing loss of weight). For animals showing a clinical sign of 2 or more, the food and the water were presented inside the cage to facilitate eating and drinking.
# At the onset of clinical signs of EAE, the mice were treated with 200 μl of Compound 51, 53, 57, 59, 101, 104, 105, 111 or 123 dissolved in 2.5% Dimethyl sulfoxide (DMSO) in PBS, while placebo groups were treated with 2.5% Dimethyl sulfoxide (DMSO) in PBS only, by intraperitoneal injection at different time of the clinical evolution.
# [12] = test system: Caspase-1 to -10; assay: Fluorometric caspase enzymatic assays, positive inhibitor control (all experiments); format: biochemical; conditions: Final concentration=20 uM
# Procedure: as §1, with “In” for “. In”, “control. […]” for “control.”
# [13] = 10-point titration 0.1 nM to 3.3 μM, 30-minute incubation at 37° C., read-out: IC50 values (μM) Caspase-6
# [14] = 10-point titration 0.1 nM to 3.3 μM, 30-minute incubation at 37° C., read-out: IC50 values (μM) Caspase-8
# [15] = read-out: IC50 values (μM) Caspase-4, 10-point titration 0.1 nM to 3.3 μM, 30-minute incubation at 37° C.
# [16] = 10-point titration 0.1 nM to 3.3 μM, 30-minute incubation at 37° C., read-out: IC50 values (μM) Caspase-2
# [17] = read-out: IC50 values (μM) Caspase-1, 10-point titration 0.1 nM to 3.3 μM, 30-minute incubation at 37° C.
# [18] = read-out: IC50 values (μM) Caspase-10, 10-point titration 0.1 nM to 3.3 μM, 30-minute incubation at 37° C.
# [19] = read-out: IC50 values (μM) Caspase-7, 10-point titration 0.1 nM to 3.3 μM, 30-minute incubation at 37° C.
# [20] = 10-point titration 0.1 nM to 3.3 μM, 30-minute incubation at 37° C., read-out: IC50 values (μM) Caspase-5
# [21] = FIG. 3, i.p. from day 14 to 19 post immunization, versus placebo
# Caspase-8, sequence (Q14790 217-374): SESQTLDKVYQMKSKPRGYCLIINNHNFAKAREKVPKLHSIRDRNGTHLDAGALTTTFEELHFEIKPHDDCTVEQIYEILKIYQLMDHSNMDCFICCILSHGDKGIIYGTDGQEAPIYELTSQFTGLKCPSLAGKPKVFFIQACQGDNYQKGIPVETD
# Caspase-8, sequence (Q14790 385-479): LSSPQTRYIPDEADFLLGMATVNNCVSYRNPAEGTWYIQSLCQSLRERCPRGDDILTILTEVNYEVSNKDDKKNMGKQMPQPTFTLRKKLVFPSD
# Caspase-4, sequence (P49662 81-270): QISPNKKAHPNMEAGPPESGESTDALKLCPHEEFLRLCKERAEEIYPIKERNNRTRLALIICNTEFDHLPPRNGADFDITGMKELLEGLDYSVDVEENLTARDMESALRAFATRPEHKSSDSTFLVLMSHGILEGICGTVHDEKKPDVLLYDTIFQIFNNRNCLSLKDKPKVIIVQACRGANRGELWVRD
# Caspase-4, sequence (P49662 290-377): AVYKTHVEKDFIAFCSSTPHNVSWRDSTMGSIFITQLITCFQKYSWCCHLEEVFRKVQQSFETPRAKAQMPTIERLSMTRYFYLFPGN
# Caspase-7, sequence (P55210 whole entry, looked up): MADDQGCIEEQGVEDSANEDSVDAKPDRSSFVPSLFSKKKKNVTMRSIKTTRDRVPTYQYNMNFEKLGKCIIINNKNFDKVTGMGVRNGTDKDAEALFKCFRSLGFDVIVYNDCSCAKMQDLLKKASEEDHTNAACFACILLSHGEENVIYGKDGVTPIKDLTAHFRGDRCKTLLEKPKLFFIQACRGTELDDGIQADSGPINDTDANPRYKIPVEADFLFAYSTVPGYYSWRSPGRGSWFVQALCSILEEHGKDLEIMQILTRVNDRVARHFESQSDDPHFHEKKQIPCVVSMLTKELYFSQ
# Caspase-7, sequence (P55210 whole entry, looked up): as above
# Caspase-3, sequence (P42574 29-175): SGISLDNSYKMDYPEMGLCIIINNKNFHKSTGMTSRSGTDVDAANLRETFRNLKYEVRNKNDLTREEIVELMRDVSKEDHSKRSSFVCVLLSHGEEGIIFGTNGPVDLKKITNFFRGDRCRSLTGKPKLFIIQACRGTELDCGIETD
# Caspase-3, sequence (P42574 176-277): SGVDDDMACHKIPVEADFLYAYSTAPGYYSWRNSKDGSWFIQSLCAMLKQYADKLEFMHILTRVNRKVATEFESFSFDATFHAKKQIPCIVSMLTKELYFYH
# Caspase-5, sequence (P51878 whole entry, looked up): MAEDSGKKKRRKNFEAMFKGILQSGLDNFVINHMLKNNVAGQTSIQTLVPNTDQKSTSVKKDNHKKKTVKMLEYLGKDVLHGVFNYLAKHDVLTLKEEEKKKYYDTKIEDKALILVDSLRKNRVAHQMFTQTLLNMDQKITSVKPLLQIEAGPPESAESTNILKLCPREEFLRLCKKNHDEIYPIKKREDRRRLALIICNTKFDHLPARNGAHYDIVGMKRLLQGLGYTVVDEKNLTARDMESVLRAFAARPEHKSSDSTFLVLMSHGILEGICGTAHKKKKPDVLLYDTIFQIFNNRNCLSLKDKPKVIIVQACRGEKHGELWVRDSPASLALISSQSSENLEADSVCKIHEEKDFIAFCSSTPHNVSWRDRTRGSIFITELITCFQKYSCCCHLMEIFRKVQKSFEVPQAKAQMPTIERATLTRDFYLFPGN
# Caspase-5, sequence (P51878 whole entry, looked up): as above
# Caspase-9, sequence (P55211 whole entry, looked up, stated change not applied): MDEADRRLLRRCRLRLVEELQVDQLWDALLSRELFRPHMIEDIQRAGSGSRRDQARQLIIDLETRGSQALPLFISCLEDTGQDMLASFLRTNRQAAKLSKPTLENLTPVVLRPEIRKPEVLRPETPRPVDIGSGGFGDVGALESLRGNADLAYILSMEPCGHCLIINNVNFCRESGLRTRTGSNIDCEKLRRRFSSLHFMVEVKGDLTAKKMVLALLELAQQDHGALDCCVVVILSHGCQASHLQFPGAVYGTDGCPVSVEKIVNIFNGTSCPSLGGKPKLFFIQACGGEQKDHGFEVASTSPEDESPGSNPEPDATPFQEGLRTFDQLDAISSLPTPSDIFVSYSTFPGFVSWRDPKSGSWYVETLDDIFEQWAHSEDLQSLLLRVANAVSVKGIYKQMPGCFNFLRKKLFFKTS
# Caspase-9, sequence (P55211 whole entry, looked up, stated change not applied): as above
# Caspase-6, sequence (P55212 24-179): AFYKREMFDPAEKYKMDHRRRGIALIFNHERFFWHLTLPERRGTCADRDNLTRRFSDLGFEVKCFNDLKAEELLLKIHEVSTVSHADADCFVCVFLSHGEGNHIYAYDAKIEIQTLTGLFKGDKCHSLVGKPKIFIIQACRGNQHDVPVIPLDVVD
# Caspase-6, sequence (P55212 194-293): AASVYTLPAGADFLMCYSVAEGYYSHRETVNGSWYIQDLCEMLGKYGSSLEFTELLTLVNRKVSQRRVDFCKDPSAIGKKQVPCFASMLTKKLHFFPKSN
# Caspase-2, sequence (P42575 170-325): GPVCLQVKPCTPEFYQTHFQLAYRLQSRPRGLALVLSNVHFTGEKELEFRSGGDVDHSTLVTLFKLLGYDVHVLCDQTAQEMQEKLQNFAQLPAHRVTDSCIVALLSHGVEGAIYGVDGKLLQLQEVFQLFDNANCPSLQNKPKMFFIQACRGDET
# Caspase-2, sequence (P42575 348-452): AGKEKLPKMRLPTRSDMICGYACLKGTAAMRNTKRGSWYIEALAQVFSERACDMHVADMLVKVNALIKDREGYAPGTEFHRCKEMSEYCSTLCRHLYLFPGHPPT
# Caspase-10, sequence (Q92851 220-415): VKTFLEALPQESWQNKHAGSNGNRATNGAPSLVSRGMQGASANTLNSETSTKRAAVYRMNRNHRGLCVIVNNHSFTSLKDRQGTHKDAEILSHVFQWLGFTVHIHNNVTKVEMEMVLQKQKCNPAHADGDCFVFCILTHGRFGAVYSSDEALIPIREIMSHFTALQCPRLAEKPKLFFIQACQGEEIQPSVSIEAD
# Caspase-10, sequence (Q92851 416-521): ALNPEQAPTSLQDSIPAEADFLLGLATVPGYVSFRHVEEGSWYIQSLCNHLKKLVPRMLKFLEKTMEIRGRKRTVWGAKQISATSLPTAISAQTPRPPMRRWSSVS
# Caspase-1, sequence (P29466 whole entry, looked up): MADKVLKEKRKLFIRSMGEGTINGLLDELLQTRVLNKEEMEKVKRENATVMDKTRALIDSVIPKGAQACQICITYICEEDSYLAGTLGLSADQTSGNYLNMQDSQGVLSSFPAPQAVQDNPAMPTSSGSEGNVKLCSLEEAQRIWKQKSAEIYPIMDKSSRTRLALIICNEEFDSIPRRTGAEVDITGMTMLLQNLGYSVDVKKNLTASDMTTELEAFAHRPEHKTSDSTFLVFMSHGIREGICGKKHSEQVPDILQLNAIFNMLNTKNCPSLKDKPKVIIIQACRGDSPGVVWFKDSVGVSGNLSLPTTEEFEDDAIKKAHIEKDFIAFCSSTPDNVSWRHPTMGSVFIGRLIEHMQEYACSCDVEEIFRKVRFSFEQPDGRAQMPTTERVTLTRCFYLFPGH
# Caspase-1, sequence (P29466 whole entry, looked up): as above
smiles,measurement,setting,value
"CC(C)[C@H](NC(=O)[C@H](Cc1cccc2ccccc12)NC(=O)[C@H](CC(=O)O)NC(=O)OCc1ccccc1)C(=O)N[C@H](/C=C/S(C)(=O)=O)CC(=O)O [Compound 111, Z-Asp-3-(1-naphtyl)-L-alanine-Val-Aspmethyl vinyl sulfone]",IC50,[1]; [13],> 3.33 µM
same,IC50,[2]; [14],> 3.33 µM
same,IC50,[3]; [15],> 3.33 µM
same,IC50,[4]; [16],> 3.33 µM
same,IC50,[5]; [17],> 3.33 µM
same,inhibitory activity towards Caspase-3,[6],high inhibitory activity
same,IC50,[6],0.08 µM
same,IC50,[7]; [18],> 3.33 µM
same,IC50,[8]; [19],> 3.33 µM
same,IC50,[9]; [20],> 3.33 µM
same,IC50,[10],> 3.33 µM
same,effects on the clinical course of EAE,[11]; [21],ameliorating effects
same,Delay in onset of the disease,[11],+
same,Reduction in body weight loss,[11],++
same,Reduction in severity of the disease,[11],++
"CC(C)[C@H](NC(=O)[C@@H](NC(=O)[C@H](CC(=O)O)NC(=O)OCc1ccccc1)c1ccccc1)C(=O)N[C@H](/C=C(\Cl)S(C)(=O)=O)CC(=O)O [Compound 123, Z-Asp-phenylglycine-Val-Asp-achlorovinyl methylsulfone]",IC50,[1]; [13],> 3.33 µM
same,IC50,[2]; [14],> 3.33 µM
same,IC50,[3]; [15],> 3.33 µM
same,IC50,[4]; [16],> 3.33 µM
same,IC50,[5]; [17],> 3.33 µM
same,inhibitory activity towards Caspase-3,[6],high inhibitory activity
same,IC50,[6],0.06 µM
same,inhibitory activity towards Caspase-10,[7],inhibitory activity
same,IC50,[7]; [18],2 µM
same,inhibitory activity towards Caspase-7,[8]; FIG. 5,high inhibitory activity
same,IC50,[8]; [19],0.5 µM
same,IC50,[9]; [20],> 3.33 µM
same,inhibitory activity towards Caspase-9,[10],inhibitory activity
same,IC50,[10],2.8 µM
same,Loss of body weight,[11]; [21],less than in the placebo group
same,effects on the clinical course of EAE,[11]; [21],ameliorating effects
same,Delay in onset of the disease,[11],+
same,Reduction in body weight loss,[11],+++
same,Reduction in severity of the disease,[11],++
"COC(=O)CC[C@H](NC(=O)[C@H](CC(=O)OC)NC(=O)OCc1ccccc1)C(=O)N[C@H](C(=O)N[C@@H](CC(=O)OC)C(=O)CF)C(C)C [Z-DEVD-FMK, z-D(OMe)E(OMe)VD(OMe)FMK, reference compound]",IC50,[1],> 3.33 µM
same,inhibitory activity towards Caspase-6,[1]; FIG. 5,negligible
same,IC50,[2],1.6 µM
same,inhibitory activity towards Caspase-8,[2]; FIG. 5,inhibitory activity
same,IC50,[3],2.5 µM
same,inhibitory activity towards Caspase-4,[3]; FIG. 5,inhibitory activity
same,IC50,[4],> 3.33 µM
same,inhibitory activity towards Caspase-2,[4]; FIG. 5,negligible
same,IC50,[5],0.7 µM
same,inhibitory activity towards Caspase-1,[5]; FIG. 5,inhibitory activity
same,IC50,[7],2.7 µM
same,inhibitory activity towards Caspase-10,[7],inhibitory activity
same,IC50,[8],> 3.33 µM
same,IC50,[9],> 3.33 µM
same,inhibitory activity towards Caspase-5,[9]; FIG. 5,negligible
same,inhibitory activity towards Caspase-9,[10],inhibitory activity
"COC(=O)C[C@H](NC(=O)[C@H](C)NC(=O)[C@@H](NC(=O)OCc1ccccc1)C(C)C)C(=O)CF [Z-VAD-FMK, benzyloxycarbonyl-Val-Ala-Asp-fluoromethylketone] (Cbz-Val-Ala-Asp(OMe)-CH2F)",inhibition by positive inhibitor control,[12],> 50%
